{"source": "patent US7504095B2", "about": "“Method for obtaining precursor Z and use thereof for the production of a means for therapy of human molybdenum cofactor deficiency” (Technische Universitaet Braunschweig, priority 2004, dated 2009)", "key": {"MOCS1-deficient mice [1]": {"test_system": "MOCS1-deficient mice", "test": "Morphologic examination of tissues of treated knockout mice", "format": "in vivo", "protocol": "FIG. 8: Morphologic comparison of kidneys (a, b) and brain sections (c,d) of wildtype- (a,c) and precursor Z-treated MOCS1-deficient mice, (b,d). Treatment was with 2-4 μg each third day. (a) Regular kidneys with normal glomerulus (arrow), characteristic developed tubuli and thin (narrow) interstices (200×). […] Proximal tubuli were extended (28+/−19%). […] The glomerulus is normal (arrow). (c,d) Corresponding coronal brain sections (Cx, Cortex; Hi, Hippocampus; Str, Striatum; Th, Thalamus; Hy, Hypothalamus) of wildtype-(c) and precursor Z-treated MOCS1^−/− mice (d).\nTissue from heart, skeletal muscle, lung, pancreas, thyroid, spleen and liver (data not shown) as well as brain (FIG. 8c-d) were examined."}, "MOCS1-deficient mice [2]": {"test_system": "MOCS1-deficient mice", "test": "Light/dark box test", "format": "in vivo", "settings": "treated MOCS1-deficient mice", "protocol": "Avoidance of light was tested in the light/dark box, in which the animals were placed into the light area and the time was determined until the animals sought out the darker area. […] The results were compared with wild-type controls. The mice were sequentially introduced into all four sectors and the time was measured until the animals found and climbed onto the platform (FIG. 7). […] In a second test series, the average swim time was reduced to 20-25% of the first test both in the “knockout” mice as well as with the control animals. In a third test series, the platform was removed and the time was measured that the mice spent in the “correct” sector—the sector that previously contained the platform. Both groups spent approximately 50% of the time in the correct sector."}, "[3]": {"settings": "low pH-values; cited from earlier work"}, "xanthine dehydrogenase": {"test_system": "xanthine dehydrogenase", "test": "Xanthine dehydrogenase activity in liver after last injection", "format": "in vivo, mice", "protocol": "(§1) FIG. 6: Restoration of the MPT-biosynthesis in vitro and in vivo. (a) In vitro restoration of MOCS1-deficient liver extracts with precursor Z. Protein raw extract of a five day old MOCS1^−/− were incubated (1 h) with the indicated amounts of purified precursor Z per mg protein. Restoration of MPT-synthesis was measured by means of nit-1 reconstitution assay. (b-d) Biochemical analysis of precursor Z treated MOCS1-deficient animals. The mice were twice weekly injected with increasing amounts of precursor Z, beginning with 2 μg after birth and up to 8 μg after weaning. Between the days 25-55 after birth the treatment was stopped. On day 0 (4 hours after the last injection), 1, 4 and 7 respectively, two mice were sacrificed. Two liver samples of each animal were removed and separately further processed. Each value in the figure was thus determined four times. […]\n(§2) In homozygote MOCS1^−/−-animals, in which precursor Z was injected regularly and which appeared normal with regard to weight, appearance and behavior, the treatment was halted and the animals were sacrificed sequentially at days 0, 1, 4 and 7 after the last injection in order to determine the MPT-content and the Mo-enzyme activity in the liver (FIG. 6b-d). Due to the rapid conversion of the administered precursor Z to MPT, the highest MPT-value was measured on the day of the injection (16±1% of the wildtype; FIG. 6b). […]"}, "[4]": {"test": "Oxidation of precursor Z in D2O/DCl on exposure to air, followed by 1H-NMR", "format": "physicochemical", "settings": "D2O and DCl, exposed to air", "protocol": "One- (1D) and two-dimensional (2D) ^1H-NMR-correlation spectra (COSY) were recorded at 300 K with a Bruker Avance DMX 600 NMR-spectrometer, which is linked to the dominating resonance of deuterium from the solvent D2O. Chemical shifts are indicated in ppm relative to the background signal of the solvent (4.80 ppm) and couplings in Hz. Precursor Z containing samples (100-200 μg) were freeze-dried and resuspended in 700 μl degassed D2O and 2 μl 36% DCl. For avoidance of oxidation, the pipette was gased for 5 minuites with nitrogen. These solutions were stable enough for recording both 1D- and 2D-COSY-spectra. Subsequent exposure of the solution to air caused the oxidation of the precursor Z to the well-described main single product, compound Z, and this reaction was monitored at regular intervals by recording 1D-^1H-spectra. Under normal conditions, this reaction is concluded after 14 days in D2O and DCl."}, "MOCS1-deficient mice [5]": {"test_system": "MOCS1-deficient mice", "test": "Cessation or delayed initiation of precursor Z treatment", "format": "in vivo", "source_text": "In order to test whether the treatment with precursor Z can be halted after a certain developmental stage, we stopped the injection of precursor Z in homozygouse mutants on days 1 (n=3), 12 (n=4), 26-28 (n=3) and 64-68 (n=2) after birth. A single injection of precursor Z after day one led to death after 15-18 days. […] At the age of 26-28 days, in which the previously described critical period falls, the cessation of administration of precursor Z led to death within 4-7 days. Cessation after 64-68 days led to reduced exploration of the environment after 7 days and to death after 9-10 days. In order to successfully correct the phenotype, the administration with precursor Z had to be initiated within 5 days following birth."}, "MOCS1-deficient mice [6]": {"test_system": "MOCS1-deficient mice", "test": "Xanthin and uric acid in urine of treated knockout mice", "format": "in vivo", "settings": "data not shown"}, "sulphite oxidase": {"test_system": "sulphite oxidase", "test": "Sulphite oxidase activity in liver after last injection", "format": "in vivo, mice", "protocol": "as §1, §2"}, "MOCS1-deficient mice [7]": {"test_system": "MOCS1-deficient mice", "test": "Running wheel test", "format": "in vivo", "settings": "10 and 20 RPM"}}, "data": [{"smiles": "Nc1nc2c(c(=O)[nH]1)N[C@@H]1[C@H](N2)O[C@@H]2COP(=O)(O)O[C@@H]2C1(O)O", "note": "[precursor Z]", "values": [{"measurement": "enlargement of the matrix of the interstices", "setting": "MOCS1-deficient mice [1]; 2-4 μg each third day", "value": "13+/−13%"}, {"measurement": "extension of proximal tubuli", "setting": "MOCS1-deficient mice [1]; 2-4 μg each third day", "value": "28+/−19%"}, {"measurement": "kidney stones", "setting": "MOCS1-deficient mice [1]; 2-4 μg each third day", "value": "numerous stones in the tubuli"}, {"measurement": "kidney morphology", "setting": "MOCS1-deficient mice [1]; beginning day 20 after birth", "value": "bilateral abnormal kidneys"}, {"measurement": "morphology besides kidney", "setting": "MOCS1-deficient mice [1]; heart, skeletal muscle, lung, pancreas, thyroid, spleen, liver, brain", "value": "no further morphologic abnormality"}, {"measurement": "light/dark box: time until seeking the darker area versus wild type", "setting": "MOCS1-deficient mice [2]", "value": "no significant difference"}, {"measurement": "estimated half time", "setting": "[3]", "value": "several hours"}, {"measurement": "xanthin dehydrogenase activity, course", "setting": "xanthine dehydrogenase; after day 1", "value": "rapidly decreased"}, {"measurement": "xanthin-dehydrogenase activity (% of wildtype) versus reconstituted MPT-content", "setting": "xanthine dehydrogenase; liver", "value": "higher than the reconstituted MPT-content"}, {"measurement": "time until oxidation to compound Z is concluded", "setting": "[4]", "value": 14, "unit": "days"}, {"measurement": "death after cessation", "setting": "MOCS1-deficient mice [5]; cessation after 64-68 days", "value": "9 to 10", "unit": "days"}, {"measurement": "onset of reduced exploration of the environment after cessation", "setting": "MOCS1-deficient mice [5]; cessation after 64-68 days", "value": 7, "unit": "days"}, {"measurement": "death after cessation", "setting": "MOCS1-deficient mice [5]; cessation at the age of 26-28 days", "value": "4 to 7", "unit": "days"}, {"measurement": "death after the last injection", "setting": "MOCS1-deficient mice [5]; cessation on day 12", "value": "7 to 9", "unit": "days"}, {"measurement": "onset of limited exploration of the environment after the last injection", "setting": "MOCS1-deficient mice [5]; cessation on day 12", "value": 6, "unit": "days"}, {"measurement": "improvement of the phenotype or the life expectancy", "setting": "MOCS1-deficient mice [5]; initiation of treatment after 7 or 10 days", "value": "no significant improvement"}, {"measurement": "time after birth within which administration had to be initiated to correct the phenotype", "setting": "MOCS1-deficient mice [5]; mouse, in vivo", "value": "≤ 5", "unit": "days"}, {"measurement": "time of death", "setting": "MOCS1-deficient mice [5]; single injection, treatment stopped on day 1", "value": "15 to 18", "unit": "days"}, {"measurement": "uric acid in the urine", "setting": "MOCS1-deficient mice [6]", "value": "not measurable"}, {"measurement": "xanthin in the urine", "setting": "MOCS1-deficient mice [6]", "value": "very high"}, {"measurement": "sulphite oxidase activity, course", "setting": "sulphite oxidase; day 0 to day 1 after the last injection", "value": "rise"}, {"measurement": "sulphite oxidase activity (% of wildtype) versus reconstituted MPT-content", "setting": "sulphite oxidase; liver", "value": "higher than the reconstituted MPT-content"}, {"measurement": "running wheel: limitations of movement", "setting": "MOCS1-deficient mice [7]", "value": "Limitations of movement were not shown"}]}]}
